Read-outs that look alike come from different tables or passages of the source.
Experiment: Plasma and brain concentrations after dosing
Assay type: in vivo, rat
Conditions: rat; for Kp at 30 min / concentration at 30 min: sc; for concentration at 150 min / concentration at 30 min: plasma
Experimental: At specified time points after dosing, the forebrain (for occupancy), the remaining hindbrain (for brain drug exposure) and plasma were collected, frozen in chilled isopentane and stored at -80°C until assayed.
In brief, 50 μL of the plasma sample was extracted by protein precipitation with 150 μL acetonitrile containing an internal standard and 5 μL of supernatant injected into the LC-MS/MS system. Analytes were separated by reversed phase chromatography and detection of each analyte was achieved through selected reaction monitoring mode of mass spectrometry.

With c1cn(-c2cc(NC3=NC[C@@]4(CN5CCC4CC5)O3)ncn2)cn1 [BMS-933043, (2R)-N-(6-(1H-imidazol-1-yl)-4-pyrimidinyl)-4'H-spiro[4-azabicyclo[2.2.2]octane-2,5'-[1,3]oxazol]-2'-amine] the Kp at 150 min (brain/plasma, oral, 3 mg/kg, Rat MK-801 Set Shift (3-30 mg/kg study), 3 mg/kg po) was 0.29, the Kp at 150 min (brain/plasma, oral, 10 mg/kg, Rat MK-801 Set Shift (3-30 mg/kg study), 10 mg/kg po) was 0.29 and the Kp at 150 min (brain/plasma, oral, 30 mg/kg, Rat MK-801 Set Shift (3-30 mg/kg study), 30 mg/kg po) was 0.31. For the same compound, the Kp (brain/plasma, other: subcutaneous or oral (pooled over all rat studies), rats) was 0.28, the Kp at 30 min (brain/plasma, 0.03 mg/kg, Rat MMN, 0.03 mg/kg sc, 30 min) was 0.57 and the Kp at 30 min (brain/plasma, 0.3 mg/kg, Rat MMN, 0.30 mg/kg sc, 30 min) was 0.17. The Kp at 30 min (brain/plasma, 0.3 mg/kg, Rat N40 Gating, 0.30 mg/kg sc, 30 min) was 0.26, the Kp at 30 min (brain/plasma, 0.56 mg/kg, Rat N40 Gating, 0.56 mg/kg sc, 30 min) was 0.3 and the Kp at 30 min (brain/plasma, 1 mg/kg, Rat MMN, 1 mg/kg sc, 30 min) was 0.19. For the same compound, the Kp at 30 min (brain/plasma, 1 mg/kg, Rat N40 Gating, 1 mg/kg sc, 30 min) was 0.33, the Kp at 30 min (brain/plasma, 3 mg/kg, Rat MMN, 3 mg/kg sc, 30 min) was 0.19 and the Kp at 30 min (brain/plasma, 3 mg/kg, Rat N40 Gating, 3 mg/kg sc, 30 min) was 0.27. The concentration at 150 min (oral, 0.3 mg/kg, Rat MK-801 Set Shift (0.3-3 mg/kg study), 0.30 mg/kg po, read-out: Plasma Mean ± SD) was 5.7 ± 0.9 nM, the concentration at 150 min (oral, 1 mg/kg, Rat MK-801 Set Shift (0.3-3 mg/kg study), 1 mg/kg po, read-out: Plasma Mean ± SD) was 50 ± 7.4 nM and the concentration at 150 min (oral, 3 mg/kg, Rat MK-801 Set Shift (0.3-3 mg/kg study), 3 mg/kg po, read-out: Plasma Mean ± SD) was 410 ± 97 nM. It also gave a concentration at 150 min (oral, 3 mg/kg, Rat MK-801 Set Shift (3-30 mg/kg study), 3 mg/kg po, read-out: Plasma Mean ± SD) of 452 ± 60 nM, a concentration at 150 min (oral, 10 mg/kg, Rat MK-801 Set Shift (3-30 mg/kg study), 10 mg/kg po, read-out: Plasma Mean ± SD) of 1860 nM and a concentration at 150 min (oral, 30 mg/kg, Rat MK-801 Set Shift (3-30 mg/kg study), 30 mg/kg po, read-out: Plasma Mean ± SD) of 7260 nM. For the same compound, the concentration at 150 min (po, 1 mg/kg, Rat Neonatal PCP ID/ED, 1 mg/kg po, read-out: Plasma Mean ± SD) was 21 ± 9 nM, the concentration at 150 min (po, 3 mg/kg, Rat Neonatal PCP ID/ED, 3 mg/kg po, read-out: Plasma Mean ± SD) was 225 ± 50 nM and the concentration at 30 min (0.01 mg/kg, Rat MMN, 0.01 mg/kg sc, 30 min, read-out: Plasma Mean ± SD) was 2.4 ± 0.1 nM. For the same compound, the concentration at 30 min (0.03 mg/kg, Rat MMN, 0.03 mg/kg sc, 30 min, read-out: Plasma Mean ± SD) was 23 ± 29 nM, the concentration at 30 min (0.1 mg/kg, Rat MMN, 0.10 mg/kg sc, 30 min, read-out: Plasma Mean ± SD) was 24 ± 0.6 nM and the concentration at 30 min (0.3 mg/kg, Rat MMN, 0.30 mg/kg sc, 30 min, read-out: Plasma Mean ± SD) was 75 ± 6 nM. It also gave a concentration at 30 min (0.3 mg/kg, Rat N40 Gating, 0.30 mg/kg sc, 30 min, read-out: Plasma Mean ± SD) of 81 ± 8 nM, a concentration at 30 min (0.56 mg/kg, Rat N40 Gating, 0.56 mg/kg sc, 30 min, read-out: Plasma Mean ± SD) of 146 ± 12 nM and a concentration at 30 min (1 mg/kg, Rat MMN, 1 mg/kg sc, 30 min, read-out: Plasma Mean ± SD) of 398 ± 139 nM. The concentration at 30 min (1 mg/kg, Rat N40 Gating, 1 mg/kg sc, 30 min, read-out: Plasma Mean ± SD) was 295 ± 27 nM, the concentration at 30 min (3 mg/kg, Rat MMN, 3 mg/kg sc, 30 min, read-out: Plasma Mean ± SD) was 1970 nM and the concentration at 30 min (3 mg/kg, Rat N40 Gating, 3 mg/kg sc, 30 min, read-out: Plasma Mean ± SD) was 1360 nM. For the same compound, the concentration at 30 min (subcutaneous, 10 mg/kg, N40 gating, read-out: average plasma concentration at dose with loss of efficacy) was 3310 nM.

— article PMC4965148 (PLoS ONE, 2016)
